In patent US20120083476A1, “HETEROARYL-SUBSTITUTED SPIROCYCLIC DIAMINE UREA MODULATORS OF FATTY ACID AMIDE HYDROLASE” (Janssen Pharmaceutica NV, priority 2009, published 2012):
Structures can show the parent of a compound that is named as a salt. Where two headings read alike, the source gives them in different places.

Legend:
FAAH = target: T1, FAAH (Homo sapiens, UniProt O00519); assay: Assay Method 1: human FAAH assay (3H-anandamide hydrolysis in cell homogenate); type: biochemical; design: expressed in transfected cells; host or cells: SK-N-MC cells stably transfected with human FAAH cDNA (G418 selection); alternatively T84 cell pellets
T1 sequence (O00519 1-579): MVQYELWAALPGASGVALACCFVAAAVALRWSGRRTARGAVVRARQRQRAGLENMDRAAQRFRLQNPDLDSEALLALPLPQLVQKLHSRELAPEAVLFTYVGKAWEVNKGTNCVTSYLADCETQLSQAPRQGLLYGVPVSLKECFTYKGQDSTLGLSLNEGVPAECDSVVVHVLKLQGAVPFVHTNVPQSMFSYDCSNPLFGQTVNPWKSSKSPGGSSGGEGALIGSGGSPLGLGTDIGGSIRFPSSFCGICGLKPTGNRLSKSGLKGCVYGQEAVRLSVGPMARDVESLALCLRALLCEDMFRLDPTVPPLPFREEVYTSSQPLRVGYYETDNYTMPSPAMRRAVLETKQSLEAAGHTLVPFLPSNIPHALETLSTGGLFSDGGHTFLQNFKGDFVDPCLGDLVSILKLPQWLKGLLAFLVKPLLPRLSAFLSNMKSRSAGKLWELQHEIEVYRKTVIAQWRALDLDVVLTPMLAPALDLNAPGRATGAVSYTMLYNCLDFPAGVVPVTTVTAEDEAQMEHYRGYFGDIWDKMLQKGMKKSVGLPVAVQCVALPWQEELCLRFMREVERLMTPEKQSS
Summary of the method: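 Homogenates of T84 cells or SK-N-MC cells stably transfected with human FAAH, in pH 9 Tris/EDTA buffer with 0.02% Triton X-100. Incubated 1 h at rt with compound and 80 nM (final) [3H-ethanolamine]-anandamide. Released 3H-ethanolamine separated on charcoal filters and counted by scintillation.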

Rat FAAH = target: T2, Rat FAAH (Rattus norvegicus, UniProt P97612); assay: Assay Method 2: rat FAAH assay (3H-anandamide hydrolysis in cell homogenate); type: biochemical
T2 construct: expressed in transfected cells; host or cells: SK-N-MC cells stably transfected with rat FAAH cDNA (G418 selection)
T2 sequence (P97612 1-579): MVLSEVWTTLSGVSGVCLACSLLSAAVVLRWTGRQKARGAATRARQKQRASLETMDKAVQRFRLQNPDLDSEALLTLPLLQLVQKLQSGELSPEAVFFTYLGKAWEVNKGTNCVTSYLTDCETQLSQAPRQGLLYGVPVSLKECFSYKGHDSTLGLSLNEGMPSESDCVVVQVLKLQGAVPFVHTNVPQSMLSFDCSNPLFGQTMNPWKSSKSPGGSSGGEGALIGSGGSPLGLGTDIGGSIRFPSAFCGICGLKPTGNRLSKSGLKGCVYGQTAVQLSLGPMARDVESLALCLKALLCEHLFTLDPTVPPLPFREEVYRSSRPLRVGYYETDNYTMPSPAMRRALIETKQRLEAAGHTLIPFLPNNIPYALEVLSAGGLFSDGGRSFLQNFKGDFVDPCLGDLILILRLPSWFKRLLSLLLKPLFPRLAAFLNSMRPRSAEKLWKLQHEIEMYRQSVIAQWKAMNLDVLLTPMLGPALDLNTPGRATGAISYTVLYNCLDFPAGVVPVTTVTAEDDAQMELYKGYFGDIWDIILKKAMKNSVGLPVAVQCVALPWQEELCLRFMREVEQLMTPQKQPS
Summary of the method: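 Homogenates of T84 cells or SK-N-MC cells stably transfected with rat FAAH, in pH 9 Tris/EDTA/glycerol/Triton buffer, incubated 1 h at room temperature with 3H-anandamide. Released labeled ethanolamine separated from substrate on activated charcoal and counted by scintillation; values averaged over runs.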

Row | IC50 (FAAH; read-out: Assay 1 IC50) | IC50 (Rat FAAH; read-out: Assay 2 IC50) | SMILES | IC50 (FAAH) | IC50 (Rat FAAH)
1 | 1600 nM | 120 nM | O=C(Nc1cnccc1Cl)N1CCCC2(CN(Cc3cccc(Oc4ccc(Cl)cc4)c3)C2)C1 [Example 30, 2-(3-(4-chlorophenoxy)benzyl)-N-(4-chloropyridin-3-yl)-2,6-diazaspiro[3.5]nonane-6-carboxamide] | – | –
2 | 70 nM | 10 nM | O=C(Nc1cnc2ccccc2c1)N1CCC2(CCN(Cc3cccc(Oc4ccc(Cl)cc4)c3)CC2)CC1 [Example 33, 9-(3-(4-chlorophenoxy)benzyl)-N-(quinolin-3-yl)-3,9-diazaspiro[5.5]undecane-3-carboxamide] | – | –
3 | > 10000 nM | 120 nM | O=C(Nc1cnc2ccccn12)N1CCCC2(CN(Cc3cccc(Oc4ccc(Cl)cc4)c3)C2)C1 [Example 34, 2-(3-(4-chlorophenoxy)benzyl)-N-(imidazo[1,2-a]pyridin-3-yl)-2,6-diazaspiro[3.5]nonane-6-carboxamide] | – | –
4 | 30 nM | 700 nM | O=C(Nc1cccnc1)N1CC2(CN(Cc3cccc(Oc4ccc(Cl)cc4)c3)C2)C1 [Example 35, 6-(3-(4-chlorophenoxy)benzyl)-N-(pyridin-3-yl)-2,6-diazaspiro[3.3]heptane-2-carboxamide] | – | –
5 | 10 nM | 30 nM | O=C(Nc1cnccc1Cl)N1CC2(CN(Cc3cccc(Oc4ccc(Cl)cc4)c3)C2)C1 [Example 36, 6-(3-(4-chlorophenoxy)benzyl)-N-(4-chloropyridin-3-yl)-2,6-diazaspiro[3.3]heptane-2-carboxamide] | – | –
6 | 90 nM | 60 nM | O=C(Nc1cccnc1)N1CC2(CCN(Cc3cccc(Oc4ccc(Cl)cc4)c3)CC2)C1 [Example 37, 7-[3-(4-Chloro-phenoxy)-benzyl]-2,7-diaza-spiro[3.5]nonane-2-carboxylic acid pyridin-3-ylamide] | – | –
7 | 820 nM | 20 nM | O=C(Nc1noc2ccccc12)N1CC2(CCN(Cc3cccc(Oc4ccc(Cl)cc4)c3)CC2)C1 [Example 38, 7-[3-(4-Chloro-phenoxy)-benzyl]-2,7-diaza-spiro[3.5]nonane-2-carboxylic acid benzo[d]isoxazol-3-ylamide] | – | –
8 | 20 nM | 20 nM | O=C(Nc1ccc(-n2nccn2)nc1)N1CC2(CCN(Cc3cccc(Oc4ccc(Cl)cc4)c3)CC2)C1 [Example 39, 7-[3-(4-Chloro-phenoxy)-benzyl]-2,7-diaza-spiro[3.5]nonane-2-carboxylic acid (6-[1,2,3]triazol-2-yl-pyridin-3-yl)-amide] | – | –
9 | 60 nM | 40 nM | O=C(Nc1cnc2[nH]ccc2c1)N1CC2(CCN(Cc3cccc(Oc4ccc(Cl)cc4)c3)CC2)C1 [Example 40, 7-[3-(4-Chloro-phenoxy)-benzyl]-2,7-diaza-spiro[3.5]nonane-2-carboxylic acid (1H-pyrrolo[2,3-b]pyridin-5-yl)-amide, trifluoroacetic acid salt] | – | –
10 | 20 nM | 80 nM | O=C(Nc1ccc(-n2nccn2)cc1)N1CC2(CCN(Cc3cccc(Oc4ccc(Cl)cc4)c3)CC2)C1 [Example 41, 7-[3-(4-Chloro-phenoxy)-benzyl]-2,7-diaza-spiro[3.5]nonane-2-carboxylic acid (4-[1,2,3]triazol-2-yl-phenyl)-amide, trifluoroacetic acid salt] | – | –
11 | > 10000 nM | 1000 nM | O=C(Nc1ncccn1)N1CC2(CCN(Cc3cccc(Oc4ccc(Cl)cc4)c3)CC2)C1 [Example 42, 7-[3-(4-Chloro-phenoxy)-benzyl]-2,7-diaza-spiro[3.5]nonane-2-carboxylic acid pyrimidin-2-ylamide, trifluoroacetic acid salt] | – | –
12 | – | – | O=C(Nc1ccncn1)N1CC2(CCN(Cc3cccc(Oc4ccc(Cl)cc4)c3)CC2)C1 [Example 43, 7-[3-(4-Chloro-phenoxy)-benzyl]-2,7-diaza-spiro[3.5]nonane-2-carboxylic acid pyrimidin-4-ylamide, trifluoroacetic acid salt] | 5660 nM | 5440 nM
13 | 40 nM | 100 nM | O=C(Nc1ccc(-n2cccn2)nc1)N1CC2(CCN(Cc3cccc(Oc4ccc(Cl)cc4)c3)CC2)C1 [Example 45, 7-[3-(4-Chloro-phenoxy)-benzyl]-2,7-diaza-spiro[3.5]nonane-2-carboxylic acid (6-pyrazol-1-yl-pyridin-3-yl)-amide, trifluoroacetic acid salt] | – | –
14 | 1000 nM | 1000 nM | O=C(Nc1ccc(-n2cncn2)nc1)N1CC2(CCN(Cc3cccc(Oc4ccc(Cl)cc4)c3)CC2)C1 [Example 46, 7-[3-(4-Chloro-phenoxy)-benzyl]-2,7-diaza-spiro[3.5]nonane-2-carboxylic acid (6-[1,2,4]triazol-1-yl-pyridin-3-yl)-amide, trifluoroacetic acid salt] | – | –
15 | 1500 nM | 8000 nM | O=C(Nc1ccc(Cl)nc1)N1CC2(CCN(Cc3cccc(Oc4ccc(Cl)cc4)c3)CC2)C1 [Example 48, 7-[3-(4-Chloro-phenoxy)-benzyl]-2,7-diaza-spiro[3.5]nonane-2-carboxylic acid (6-chloro-pyridin-3-yl)-amide, trifluoroacetic acid salt] | – | –
16 | 1800 nM | 8000 nM | COc1ccc(NC(=O)N2CC3(CCN(Cc4cccc(Oc5ccc(Cl)cc5)c4)CC3)C2)cn1 [Example 49, 7-[3-(4-Chloro-phenoxy)-benzyl]-2,7-diaza-spiro[3.5]nonane-2-carboxylic acid (6-methoxy-pyridin-3-yl)-amide, trifluoroacetic acid salt] | – | –
17 | 820 nM | 8000 nM | N#Cc1ccc(NC(=O)N2CC3(CCN(Cc4cccc(Oc5ccc(Cl)cc5)c4)CC3)C2)cn1 [Example 50, 7-[3-(4-Chloro-phenoxy)-benzyl]-2,7-diaza-spiro[3.5]nonane-2-carboxylic acid (6-cyano-pyridin-3-yl)-amide, trifluoroacetic acid salt] | – | –
18 | 660 nM | 670 nM | O=C(Nc1cccc2nonc12)N1CC2(CCN(Cc3cccc(Oc4ccc(Cl)cc4)c3)CC2)C1 [Example 52, 7-[3-(4-Chloro-phenoxy)-benzyl]-2,7-diaza-spiro[3.5]nonane-2-carboxylic acid benzo[1,2,5]oxadiazol-4-ylamide, trifluoroacetic acid salt] | – | –
19 | 10 nM | 10 nM | O=C(Nc1cnccc1Cl)N1CC2(CCN(Cc3cccc(Oc4ccc(Cl)cc4)c3)CC2)C1 [Example 53, 7-[3-(4-Chloro-phenoxy)-benzyl]-2,7-diaza-spiro[3.5]nonane-2-carboxylic acid (4-chloro-pyridin-3-yl)-amide, trifluoroacetic acid salt] | – | –
20 | 170 nM | 190 nM | O=C(Nc1cccnc1Cl)N1CC2(CCN(Cc3cccc(Oc4ccc(Cl)cc4)c3)CC2)C1 [Example 54, 7-[3-(4-Chloro-phenoxy)-benzyl]-2,7-diaza-spiro[3.5]nonane-2-carboxylic acid (2-chloro-pyridin-3-yl)-amide, trifluoroacetic acid salt] | – | –

Row | SMILES | IC50 (FAAH; read-out: Assay 1 IC50) | IC50 (Rat FAAH; read-out: Assay 2 IC50) | IC50 (FAAH) | IC50 (Rat FAAH)
21 | O=C(Nc1cccnn1)N1CC2(CCN(Cc3cccc(Oc4ccc(Cl)cc4)c3)CC2)C1 [Example 44, 7-[3-(4-Chloro-phenoxy)-benzyl]-2,7-diaza-spiro[3.5]nonane-2-carboxylic acid pyridazin-3-ylamide, trifluoroacetic acid salt] | 430 nM | – | – | 260 nM
